One assay has as its target Phospholipase A2 (Homo sapiens) (UniProt P04054). Description: Inhibition of PLA2 at 50 ug/ml.
Settings: not given
Phospholipase A2 (Homo sapiens), sequence (P04054 23-148 limits assumed): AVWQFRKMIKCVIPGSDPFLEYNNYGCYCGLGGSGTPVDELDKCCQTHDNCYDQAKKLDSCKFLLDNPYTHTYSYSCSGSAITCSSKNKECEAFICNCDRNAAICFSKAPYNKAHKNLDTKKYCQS
As a reminder, the inhibition is the relative decrease from the control value, in per cent. A low value points to little suppression. The molecule `C#C/C=C\CCCCCCCCCCCCCC/C=C\CCC/C=C/C(O)CCCCC#C[C@H](O)C#CCCCCCC/C=C/[C@@H](O)C#C` (some centres undefined) [PETROCORTYNE E] had an inhibition of 48%.

`C#C/C=C\CCCCCCCCCCCCCC/C=C\CCCCC(O)/C=C/CCCC#C[C@H](O)C#CCCCCCC/C=C/[C@@H](O)C#C` (some centres undefined) [PETROCORTYNE F] gave an inhibition of 25%.

As for `C#C/C=C\CCCCCCCCCCCCC/C=C/C(O)CCCC/C=C\CCCCC#C[C@H](O)C#CCCCCCC/C=C/[C@@H](O)C#C` (some centres undefined) [PETROCORTYNE G], the inhibition came out at 36%.

The molecule `C#C/C=C\CCCCCCCCCCCCCCC(O)/C=C/CCC/C=C\CCCCC#C[C@H](O)C#CCCCCCC/C=C/[C@@H](O)C#C` (some centres undefined) [PETROCORTYNE H] displayed an inhibition of 32%.

The test system of a further assay is K562. Kind of assay: Cytotoxicity against human K562 cells. The following applies: read-out: LC50 (the source's name). It counts as functional.
For the molecule `C#C/C=C\CCCCCCCCCCCCCC/C=C\CCCC/C=C\CCCCC#C[C@H](O)C#CCCCCCCCC[C@H](O)C#C` [PETROCORTYNE D], the CC50 came to 45 µM.

As to `C#C/C=C\CCCCCCCCCCCCCC/C=C\CCC/C=C/C(O)CCCCC#C[C@H](O)C#CCCCCCC/C=C/[C@@H](O)C#C` (some centres undefined) [PETROCORTYNE E], the CC50 amounted to 7 µM.

Take `C#C/C=C\CCCCCCCCCCCCCC/C=C\CCCCC(O)/C=C/CCCC#C[C@H](O)C#CCCCCCC/C=C/[C@@H](O)C#C` (some centres undefined) [PETROCORTYNE F]: the CC50 was found to be 21 µM.

For `C#C/C=C\CCCCCCCCCCCCC/C=C/C(O)CCCC/C=C\CCCCC#C[C@H](O)C#CCCCCCC/C=C/[C@@H](O)C#C` (some centres undefined) [PETROCORTYNE G], the CC50 was determined as 30 µM.

For `C#C/C=C\CCCCCCCCCCCCCCC(O)/C=C/CCC/C=C\CCCCC#C[C@H](O)C#CCCCCCC/C=C/[C@@H](O)C#C` (some centres undefined) [PETROCORTYNE H], the CC50 is 11 µM.
